Results from article PMC8071358, “Targeting of the Essential acpP, ftsZ, and rne Genes in Carbapenem-Resistant Acinetobacter baumannii by Antisense PNA Precision Antibacterials” (Biomedicines, 2021).
In brackets after ≈: the same amount, converted by molar mass. Where two headings read alike, the source gives them in different places. {(KFF)3K-eg1} = H-(KFF)3K peptide (K lysine, F phenylalanine) with eg1 linker (8-amino-3,6-dioxaoctanoyl), on the PNA N terminus (5' end); {NH2} = C-terminal amide

How the values were obtained:
Format in all cases: cell-based, Acinetobacter baumannii
[1] = tested on: A. baumannii ATCC 19606 type strain; test: Antibiotic MIC (CLSI microdilution or gradient strips); conditions: Acinetobacter baumannii, ATCC19606
Experimental: (§1) All minimum inhibitory concentration (MIC) determinations for antibiotics were performed by the standard microdilution method in 96-well microplate (Thermo-Scientific, Roskilde, Denmark) or by gradient test strips (Liofilchem, Italy) according to the Clinical and Laboratory Standards Institute guidelines. Escherichia coli ATCC 25922 was used as control.

CRAB strain AC1 = test: as above; conditions: Acinetobacter baumannii, AC1, wound isolate
Experimental: as §1

CRAB strain AC2 [2] = test: as above; conditions: Acinetobacter baumannii
Experimental: as §1

CRAB strain AC3 = test: as above; conditions: Acinetobacter baumannii, AC3, sputum isolate
Experimental: as §1

CRAB strain AC44 [3] = test: as above; conditions: Acinetobacter baumannii, AC44, urine isolate
Experimental: as §1

CRAB strain AC46 [4] = test: as above; conditions: Acinetobacter baumannii
Experimental: as §1

CRAB strain AC4 = test: as above; conditions: Acinetobacter baumannii
Experimental: as §1

CRAB strain AC5 = test: as above; conditions: Acinetobacter baumannii, AC5, urine isolate
Experimental: as §1

CRAB strain AC8 = test: as above; conditions: Acinetobacter baumannii
Experimental: as §1

CRAB strain AC9 = test: as above; conditions: Acinetobacter baumannii
Experimental: as §1

CRAB strain SSI1104 = test: as above; conditions: Acinetobacter baumannii, SSI1104
Experimental: as §1

CRAB strain AC6 = test: as above; conditions: Acinetobacter baumannii
Experimental: as §1, with “guidelines.” for “guidelines. Escherichia coli ATCC 25922 was used as control.”

CRAB strain AC7 = test: as above; conditions: Acinetobacter baumannii
Experimental: as §1, with “guidelines.” for “guidelines. Escherichia coli ATCC 25922 was used as control.”

A. baumannii ATCC 19606 = test: BPP-PNA MIC, broth microdilution; conditions: 37 °C, 18 h
Experimental: (§2) MIC values were determined by broth microdilution according to standard protocols with a few modifications. An overnight bacterial cell culture was diluted to approximately 5 × 10^5 CFU/mL in non-cation-adjusted Muller Hinton Broth (MHB). Then, 180 µL bacterial solutions were dispensed into a low-bind 96-well plate (Thermo-Scientific, Roskilde, Denmark) along with 20 µL of BPP-PNA compound (BPP-PNA was serially diluted 2-fold from 16 to 0.5 µM in a 96-well plate). The plate was incubated in a Tecan Genios plate reader (GMI, Minnesota, Ramsey, USA) at 37 °C for 18 h with linear shaking, OD was measured every 20 min at 595 nm. […] The minimum bactericidal concentration (MBC) values were determined by plating 10 µL samples from the wells with no visible turbidity onto Mueller–Hinton agar plates. The MBC is determined the lowest concentration of BPP-PNA that reduces the viability of the initial bacterial inoculum by ≥99.9% (3-log reduction in CFU/mL). A minimum of two independent experiments (biological replicates) of the assay were conducted, and two technical replicates were used in each experiment for each bacterium, compound, and concentration.

CRAB strain AC2 [5] = test: BPP-PNA MIC, broth microdilution
Experimental: as §2

CRAB strain AC44 [6] = test: BPP-PNA MIC, broth microdilution
Experimental: as §2

A. baumannii SSI1104 = test: BPP-PNA MIC, broth microdilution
Experimental: as §2, with “An overnight bacterial cell culture was diluted to approximately 5 × 10^5 CFU/mL in non-cation-adjusted Muller Hinton Broth (MHB).” left out

CRAB strain AC46 [7] = test: BPP-PNA MIC, broth microdilution
Experimental: as §2, with “An overnight bacterial cell culture was diluted to approximately 5 × 10^5 CFU/mL in non-cation-adjusted Muller Hinton Broth (MHB).” left out

[8] = AC2, wound isolate, CLSI, read-out: MIC, AC2
[9] = AC46, sputum isolate, CLSI, read-out: MIC, AC46
[10] = AC4, trachea isolate, CLSI, read-out: MIC, AC4
[11] = AC8, sputum isolate, CLSI, read-out: MIC, AC8
[12] = AC9, CSF isolate, CLSI, read-out: MIC, AC9
[13] = AC6, blood isolate, CLSI, read-out: MIC, AC6
[14] = AC7, blood isolate, CLSI, read-out: MIC, AC7
[15] = Table 4 (anti-rne), brand of medium not given, non-cation-adjusted MHB by method
[16] = Sigma MHB medium without cation, 37 °C, 18 h

Compound | MIC [1] [µg/mL] | MIC (CRAB strain AC1) [µg/mL] | MIC (CRAB strain AC3) [µg/mL] | MIC (CRAB strain AC44 [3]) [µg/mL] | MIC (CRAB strain AC46 [4]; [9]) [µg/mL] | MIC (CRAB strain AC8; [11]) [µg/mL] | MIC (CRAB strain AC9; [12]) [µg/mL] | MIC, ATCC 19606 (A. baumannii ATCC 19606; [15]) [µM] | MIC, AC44 (CRAB strain AC44 [6]; [15]) [µM] | MIC, AC46 (CRAB strain AC46 [7]; [15]) [µM] | further results
CC(C)(O/N=C(\C(=O)N[C@@H]1C(=O)N2C(C(=O)[O-])=C(C[n+]3ccccc3)CS[C@H]12)c1csc(N)n1)C(=O)O [Ceftazidime] | 8 (≈ 14.6 µM) | 64 (≈ 117 µM) | 64 (≈ 117 µM) | 256 (≈ 468 µM) | 128 (≈ 234 µM) | 64 (≈ 117 µM) | 32 (≈ 58.5 µM) | – | – | – | MIC (CRAB strain AC2 [2]; [8]): 64 µg/mL (≈ 117 µM); MIC (CRAB strain AC4; [10]): 64 µg/mL (≈ 117 µM); MIC (CRAB strain AC5): 32 µg/mL (≈ 58.5 µM); MIC (CRAB strain SSI1104): > 8 µg/mL; MIC (CRAB strain AC6; [13]): 32 µg/mL (≈ 58.5 µM); MIC (CRAB strain AC7; [14]): 64 µg/mL (≈ 117 µM)
CNC(C)C1CCC(N)C(OC2C(N)CC(N)C(OC3OCC(C)(O)C(NC)C3O)C2O)O1 (stereo not drawn) [Gentamicin] | 4 (≈ 8.38 µM) | 8 (≈ 16.8 µM) | 8 (≈ 16.8 µM) | – | – | – | – | – | – | – | MIC (CRAB strain AC2 [2]; AC2, read-out: MIC, AC2): 16 µg/mL (≈ 33.5 µM); MIC (CRAB strain AC46 [4]; AC46, read-out: MIC, AC46): 16 µg/mL (≈ 33.5 µM); MIC (CRAB strain AC4; AC4, read-out: MIC, AC4): 16 µg/mL (≈ 33.5 µM); MIC (CRAB strain AC8; AC8, read-out: MIC, AC8): 16 µg/mL (≈ 33.5 µM); MIC (CRAB strain AC9; AC9, read-out: MIC, AC9): 16 µg/mL (≈ 33.5 µM); MIC (CRAB strain SSI1104): 32 µg/mL (≈ 67 µM); MIC (CRAB strain AC6; AC6, read-out: MIC, AC6): 16 µg/mL (≈ 33.5 µM); MIC (CRAB strain AC7; AC7, read-out: MIC, AC7): 16 µg/mL (≈ 33.5 µM)
C[C@@H](O)[C@H]1C(=O)N2C(C(=O)O)=C(SCCN=CN)C[C@H]12 [Imipenem] | 1 (≈ 3.34 µM) | 8 (≈ 26.7 µM) | 32 (≈ 107 µM) | 16 (≈ 53.4 µM) | 16 (≈ 53.4 µM) | 16 (≈ 53.4 µM) | 16 (≈ 53.4 µM) | – | – | – | MIC (CRAB strain AC2 [2]; [8]): 16 µg/mL (≈ 53.4 µM); MIC (CRAB strain AC4; [10]): 8 µg/mL (≈ 26.7 µM); MIC (CRAB strain AC5): 16 µg/mL (≈ 53.4 µM); MIC (CRAB strain AC6; [13]): 16 µg/mL (≈ 53.4 µM); MIC (CRAB strain AC7; [14]): 16 µg/mL (≈ 53.4 µM)
CN(C)[C@@H]1C(O)=C(C(N)=O)C(=O)[C@@]2(O)C(O)=C3C(=O)c4c(O)cccc4[C@@](C)(O)[C@H]3C[C@@H]12 [Tetracycline] | 1 (≈ 2.25 µM) | – | – | 256 (≈ 576 µM) | 128 (≈ 288 µM) | 32 (≈ 72 µM) | 32 (≈ 72 µM) | – | – | – | –
H-(KFF)3K-eg1- TTTGATGTGTG -NH2 (all peptide nucleic acid (PNA), 5' {(KFF)3K-eg1}, 3' {NH2}) [PNA 5822, anti-rne mismatch control of 5656] | – | – | – | – | – | – | – | 8 | 8 | 8 | MIC, AC2 (CRAB strain AC2 [5]; [15]): 8 µM; MIC, SSI 1104 (A. baumannii SSI1104; [15]): 8 µM
H-(KFF)3K-eg1-ACGATTCTTGG-NH2 (all peptide nucleic acid (PNA), 5' {(KFF)3K-eg1}, 3' {NH2}) [PNA 5638, anti-rne mismatch control of 5637] | – | – | – | – | – | – | – | 2 | 2 | 1 | –
H-(KFF)3K-eg1-ACGTTTCATGG-NH2 (all peptide nucleic acid (PNA), 5' {(KFF)3K-eg1}, 3' {NH2}) [PNA 5637, anti-rne peptide-PNA conjugate, match, −2 to +9] | – | – | – | – | – | – | – | 1 | 1 | 1 | –
H-(KFF)3K-eg1-ATACCGCTTAC-NH2 (all peptide nucleic acid (PNA), 5' {(KFF)3K-eg1}, 3' {NH2}) [PNA 5653, anti-acpP mismatch control of 5652] | – | – | – | – | – | – | – | – | – | – | MIC, ATCC 19606 (A. baumannii ATCC 19606; Sigma MHB medium without cation, ~5 × 10^5 CFU/mL, OD595 < 0.1): 4 µM; MIC, AC2 (CRAB strain AC2 [5]; [16]): 4 µM; MIC, AC44 (CRAB strain AC44 [6]; [16]): 4 µM; MIC, SSI 1104 (A. baumannii SSI1104; [16]): 4 µM; MIC, AC46 (CRAB strain AC46 [7]; [16]): 4 µM
